Tests used:
[1] = General physicochemical properties
From the text: Suzhou Zelgen Biopharmaceuticals Co., Ltd. Jaktinib Hydrochloride Tablets Chemical Drug Class 1 New Drug
Table 5. General physicochemical properties of Jaktinib hydrochloride […]
Appearance Yellow to orange crystalline powder; Odorless; Bitter taste […]
methylpyrrolidone; soluble in N, N-dimethyl formamide; […]
acetonitrile, dioxane, tert-butyl methyl ether or water
Jaktinib dihydrochloride monohydrate is a crystalline solid
Crystal Form containing two molecules of hydrogen chloride and one molecule of water of crystallization, with its crystal form being polymorph

[2] = Treatment-related AEs (NCI CTCAE), SAD cohorts; format: in vivo, human
Protocol: In SAD part, volunteers were designed into eight SAD cohorts (25, 50, 100, 150, 200, 250, 300 and 400 mg). Among these cohorts, 25 mg was bisected by the 50 mg specification under good manufacturing practices (GMP) condition and provided the certificate of analysis. […] Jaktinib or placebo was administrated after an overnight fast.
Dose-limiting toxicities (DLTs) were defined according to the NCI CTCAE v.4.03 as any occurrence of the following drug-related adverse events (AEs): more than one third of volunteers suffered Grade ≥4 drug-related hematological toxicities or Grade ≥3 drug-related nonhematological toxicities; one drug-related serious adverse events (SAEs).

[3] = PK, single intragastric dose; format: in vivo, rats
Protocol: Suzhou Zelgen Biopharmaceuticals Co., Ltd. Jaktinib Hydrochloride Tablets Chemical Drug Class 1 New Drug […]
Gender Tma x Cma x AUC0-t AUC0-∞ MRT t1/2 […]
Pharmacokinetic Study of Single-Dose Intragastric Administration in […]
After a single intragastric administration of 15.3, 30.5 and 61 mg/kg of ZG0128 […]
drug in three dose groups were 5.74, 8.33 and 12.4 μg/mL, respectively. […]
ZG0245 was lower than the proportional increase in dose, the increase in the AUC0-t of ZG0163 was directly proportional to the increase in dose, and the increase in the AUC0-t of the metabolite ZG0245 was slightly higher than the proportional increase in dose. Based on the average value of AUC0-t, the absolute bioavailability of the drug in rats receiving a single intragastric administration of 15.3 mg/kg of […] was 40.0%. […]

[4] = all SAD volunteers who received jaktinib

## Cl.Cl.O.[2H]C1([2H])COCC([2H])([2H])N1c1ccc(Nc2nccc(-c3ccc(C(=O)NCC#N)cc3)n2)cc1 [ZG0128, Jaktinib Dihydrochloride Monohydrate]
[1]
  Hygroscopicity: Slightly hygroscopic
[1]; 0.1 mol/L hydrochloric acid
  Solubility: slightly soluble
[1]; dimethyl sulfoxide
  Solubility: freely soluble
[1]; ethanol
  Solubility: slightly soluble in ethanol
[1]; methanol
  Solubility: slightly soluble
[1]; water
  Solubility: practically insoluble

## Jaktinib
[2]; 25 mg, Grade 1–2
  Elevated serum creatinine: 1 (16.7) n (%)
[2]; 100 mg, Grade 1–2
  Hematuria: 1 (16.7) n (%)
[2]; 150 mg, Grade 1–2
  Fecal leukocytosis: 1 (16.7) n (%)
  Hyperglycemia: 1 (16.7) n (%)
  Mucous stool: 1 (16.7) n (%)
  Positive fecal occult blood: 1 (16.7) n (%)
  Upper abdominal pain: 1 (16.7) n (%)
  Urinary sediment positive: 1 (16.7) n (%)
  Urine erythrocyte positive: 3 (50.0) n (%)
  Urine leukocyte positive: 2 (33.3) n (%)
[2]; 200 mg, Grade 1–2
  Nausea: 1 (16.7) n (%)
  Urine erythrocyte positive: 1 (16.7) n (%)
[2]; 250 mg, Grade 1–2
  Fever: 1 (16.7) n (%)
  Headache: 1 (16.7) n (%)
[2]; 250 mg, Grade 3
  Varicella: 1 (16.7) n (%)
[2]; 300 mg, Grade 1–2
  Dizziness: 1 (16.7) n (%)
  Fever: 1 (16.7) n (%)
  Headache: 4 (66.7) n (%)
  Lymphocytopenia: 1 (16.7) n (%)
  Neutrophilic granulocytosis: 1 (16.7) n (%)
[2]; 400 mg, Grade 1–2
  Anemia: 1 (16.7) n (%)
[2]; all SAD cohorts
  volunteers with treatment-related AEs: 28.1%
[2]; [4]
  Headache incidence: 10.4%
  positive urine erythrocyte incidence: 8.3%
[3]; 15.3 mg/kg ZG0128, Female
  AUC0-t: 19.4 ± 7.5 µg·h/mL
  AUC0-∞: 19.4 ± 7.5 µg·h/mL
  Cmax: 4.82 ± 1.25 µg/mL
  MRT: 2.82 ± 0.60 h
  Tmax: 0.5 (0.5-1.0) h
  t1/2: 0.93 ± 0.26 h
[3]; 15.3 mg/kg ZG0128, Male
  AUC0-t: 24.5 ± 11.3 µg·h/mL
  AUC0-∞: 24.6 ± 11.3 µg·h/mL
  Cmax: 6.66 ± 2.13 µg/mL
  MRT: 2.45 ± 0.29 h
  Tmax: 1.0 (0.5-2.0) h
  t1/2: 0.84 ± 0.20 h
[3]; 15.3 mg/kg ZG0128, Overall
  AUC0-t: 21.9 µg·h/mL
  AUC0-∞: 22.0 ± 9.0 µg·h/mL
  Cmax: 5.74 µg/mL
  MRT: 2.63 ± 0.47 h
  Tmax: 0.75 (0.5-2.0) h
  t1/2: 0.89 ± 0.21 h
[3]; 15.3 mg/kg, by AUC0-t
  absolute bioavailability: 40.0%
[3]; 30.5 mg/kg ZG0128, Female
  AUC0-t: 39.9 ± 13.6 µg·h/mL
  AUC0-∞: 40.2 ± 13.2 µg·h/mL
  Cmax: 9.68 ± 3.40 µg/mL
  MRT: 3.46 ± 0.75 h
  Tmax: 2.0 (2.0) h
  t1/2: 2.07 ± 2.24 h
[3]; 30.5 mg/kg ZG0128, Male
  AUC0-t: 41.6 ± 19.7 µg·h/mL
  AUC0-∞: 43.2 ± 21.9 µg·h/mL
  Cmax: 6.97 ± 1.15 µg/mL
  MRT: 3.95 ± 1.68 h
  Tmax: 1.0 (1.0-2.0) h
  t1/2: 1.58 ± 0.75 h
[3]; 30.5 mg/kg ZG0128, Overall
  AUC0-t: 40.8 µg·h/mL
  AUC0-∞: 41.7 ± 16.2 µg·h/mL
  Cmax: 8.33 µg/mL
  MRT: 3.70 ± 1.19 h
  Tmax: 2.0 (1.0-2.0) h
  t1/2: 1.82 ± 1.52 h
[3]; 61 mg/kg ZG0128, Female
  AUC0-t: 82.7 ± 31.0 µg·h/mL
  AUC0-∞: 87.3 ± 31.0 µg·h/mL
  Cmax: 12.1 ± 2.6 µg/mL
  MRT: 4.87 ± 1.22 h
  Tmax: 4.0 (1.0-6.0) h
  t1/2: 2.14 ± 0.31 h
[3]; 61 mg/kg ZG0128, Male
  AUC0-t: 124 ± 58 µg·h/mL
  AUC0-∞: 124 ± 58 µg·h/mL
  Cmax: 12.8 ± 1.7 µg/mL
  MRT: 6.20 ± 2.52 h
  Tmax: 2.0 (2.0-8.0) h
  t1/2: 1.56 ± 0.59 h
[3]; 61 mg/kg ZG0128, Overall
  AUC0-t: 103 µg·h/mL
  AUC0-∞: 106 ± 46 µg·h/mL
  Cmax: 12.4 µg/mL
  MRT: 5.54 ± 1.92 h
  Tmax: 3.0 (1.0-8.0) h
  t1/2: 1.85 ± 0.53 h
[3]; 15.3, 30.5 and 61 mg/kg ZG0128
  Tmax, range over doses: 0.75 to 3.0 h
  plasma elimination half-life t1/2, range over doses: 0.89 to 1.85 h

Source: article PMC7849180 (Frontiers in Pharmacology, 2020)
